Test results published in patent publication US5236928A, “Imidazole derivatives bearing acidic functional groups at the 5-position, their compositions and methods of use as angiotensin II antagonists” (Merck & Co., Inc., priority 1992, dated 1993).

Tested on: BALB 3T3/H-ras
Assay: BALB 3T3/H-ras inhibition activity
Assay type: cell-based

In the case of CC(C)C(C)CC[C@@H](C)C1CCN=C2C3=C(CC[C@@]21C)[C@@]1(C)CC[C@H](O)CC1CC3 (stereo partly shown) [UCA1064-B], the “BALB 3T3/H-ras Inhibition Activity IC50” value is reported as 3.5 µg/mL.
